2 compounds from ChEMBL document CHEMBL4507284, “Data for DCP probe BI-1230” (2021) can be followed below.

One assay has as its target Caspase-6 (Homo sapiens) (UniProt P55212). The experiment in a line: Caspase-6 (h) Eurofins-Cerep enzyme and uptake assay. The settings on record: Compound concentration 10.0 uM.
In assay [1] the target is Alpha-1D adrenergic receptor (Homo sapiens) (UniProt P25100). The settings on record: Compound concentration 10.0 uM.
In assay [2] the target is Cathepsin E (Homo sapiens) (UniProt P14091). Put plainly: Cathepsin E Eurofins-Cerep enzyme and uptake assay. The settings on record: Mus musculus; Compound concentration 10.0 uM.
Chain of Cathepsin E (Homo sapiens) (P14091 whole entry): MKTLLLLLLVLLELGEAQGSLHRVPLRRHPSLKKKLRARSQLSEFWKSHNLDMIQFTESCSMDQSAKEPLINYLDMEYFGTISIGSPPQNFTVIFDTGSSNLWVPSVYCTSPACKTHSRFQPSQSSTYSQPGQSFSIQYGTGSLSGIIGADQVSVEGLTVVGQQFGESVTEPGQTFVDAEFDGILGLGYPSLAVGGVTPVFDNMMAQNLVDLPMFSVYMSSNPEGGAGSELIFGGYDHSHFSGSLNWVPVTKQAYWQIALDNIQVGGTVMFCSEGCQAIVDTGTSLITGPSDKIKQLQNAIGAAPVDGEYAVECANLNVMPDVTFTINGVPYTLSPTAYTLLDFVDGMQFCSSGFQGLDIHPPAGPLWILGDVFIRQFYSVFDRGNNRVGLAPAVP
Assay [3] has as its target Endothelin-converting enzyme 1 (Homo sapiens) (UniProt P42892). The experiment in a line: ECE-1 (h) Eurofins-Cerep enzyme and uptake assay. The settings on record: Compound concentration 10.0 uM.
Assay [4] addresses Neutrophil elastase (Homo sapiens) (UniProt P08246). Put plainly: Elastase (h) Eurofins-Cerep enzyme and uptake assay. The settings on record: Compound concentration 10.0 uM.
For assay [5], the target named is Beta-3 adrenergic receptor (Homo sapiens, UniProt P13945). The experiment in a line: GPCRScan assay: inhibition of Beta3. Set-up: radioligand conc. used [nm] 0.2 – 0.5, parental cells HEK Flp-In.
Chain of Beta-3 adrenergic receptor (P13945 whole entry): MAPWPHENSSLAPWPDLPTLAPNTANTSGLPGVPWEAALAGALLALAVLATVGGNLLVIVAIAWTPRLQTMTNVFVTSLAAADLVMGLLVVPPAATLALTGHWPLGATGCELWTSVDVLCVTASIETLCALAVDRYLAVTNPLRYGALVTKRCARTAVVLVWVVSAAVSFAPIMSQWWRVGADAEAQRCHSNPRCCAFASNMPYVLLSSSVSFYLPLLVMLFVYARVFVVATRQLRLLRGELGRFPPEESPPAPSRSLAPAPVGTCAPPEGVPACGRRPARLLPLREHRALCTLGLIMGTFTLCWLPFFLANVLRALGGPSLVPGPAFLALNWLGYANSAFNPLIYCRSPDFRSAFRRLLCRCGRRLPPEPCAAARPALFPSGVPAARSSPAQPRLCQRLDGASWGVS
Another assay has as its target Caspase-2 (Homo sapiens) (UniProt P42575). Put plainly: Caspase-2 (h) Eurofins-Cerep enzyme and uptake assay. The note with it: Compound concentration 10.0 uM.
Assay [6] deals with Matrix metalloproteinase-14 (Homo sapiens) (UniProt P50281). Put plainly: MT1-MMP (h) (MMP-14) Eurofins-Cerep enzyme and uptake assay. The settings on record: Compound concentration 10.0 uM.
The target of assay [7] is GABA-A receptor; anion channel (Rattus norvegicus) (UniProt O09028+P15431+P18506+P18508+P19969+P20236+P23574+P23576+P28471+P28473+P30191+P62813+P63079+P63138+Q91ZM7+Q9ES14). The note with it: Compound concentration 10.0 uM.
The target of assay [8] is Histamine H3 receptor (Homo sapiens) (UniProt Q9Y5N1). The note with it: Compound concentration 10.0 uM.
Chain of Histamine H3 receptor (Homo sapiens) (Q9Y5N1 whole entry): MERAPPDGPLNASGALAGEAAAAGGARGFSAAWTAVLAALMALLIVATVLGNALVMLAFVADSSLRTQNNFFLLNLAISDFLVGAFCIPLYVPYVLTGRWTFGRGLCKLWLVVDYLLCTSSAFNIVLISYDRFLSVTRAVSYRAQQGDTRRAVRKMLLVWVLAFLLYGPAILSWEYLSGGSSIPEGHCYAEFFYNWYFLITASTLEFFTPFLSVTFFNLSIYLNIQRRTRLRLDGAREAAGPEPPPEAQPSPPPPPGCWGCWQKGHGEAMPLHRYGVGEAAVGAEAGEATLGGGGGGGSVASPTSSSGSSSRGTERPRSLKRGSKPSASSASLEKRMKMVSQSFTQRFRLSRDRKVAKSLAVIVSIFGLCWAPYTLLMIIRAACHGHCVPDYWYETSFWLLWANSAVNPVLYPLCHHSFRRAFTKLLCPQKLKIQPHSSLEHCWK

Chain of Caspase-6 (Homo sapiens) (P55212 24-179 limits assumed): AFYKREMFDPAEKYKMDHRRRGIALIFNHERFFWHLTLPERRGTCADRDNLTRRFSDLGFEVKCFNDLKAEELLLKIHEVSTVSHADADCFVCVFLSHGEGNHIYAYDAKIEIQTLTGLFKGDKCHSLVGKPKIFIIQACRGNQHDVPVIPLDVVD
Chain of Caspase-6 (Homo sapiens) (P55212 194-293 limits assumed): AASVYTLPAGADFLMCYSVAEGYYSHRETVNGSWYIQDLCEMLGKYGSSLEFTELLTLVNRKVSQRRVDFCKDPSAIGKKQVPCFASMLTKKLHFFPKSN
Chain of Caspase-2 (Homo sapiens) (P42575 170-325 limits assumed): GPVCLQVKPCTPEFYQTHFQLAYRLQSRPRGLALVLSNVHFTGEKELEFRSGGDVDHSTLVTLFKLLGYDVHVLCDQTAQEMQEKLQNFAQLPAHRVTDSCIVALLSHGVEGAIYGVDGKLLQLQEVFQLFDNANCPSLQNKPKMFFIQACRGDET
Chain of Caspase-2 (Homo sapiens) (P42575 334-452 limits assumed): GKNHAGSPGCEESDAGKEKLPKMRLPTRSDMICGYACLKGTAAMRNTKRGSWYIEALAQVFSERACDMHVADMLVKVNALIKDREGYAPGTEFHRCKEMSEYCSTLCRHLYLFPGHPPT
Chain of Endothelin-converting enzyme 1 (Homo sapiens) (P42892 whole entry): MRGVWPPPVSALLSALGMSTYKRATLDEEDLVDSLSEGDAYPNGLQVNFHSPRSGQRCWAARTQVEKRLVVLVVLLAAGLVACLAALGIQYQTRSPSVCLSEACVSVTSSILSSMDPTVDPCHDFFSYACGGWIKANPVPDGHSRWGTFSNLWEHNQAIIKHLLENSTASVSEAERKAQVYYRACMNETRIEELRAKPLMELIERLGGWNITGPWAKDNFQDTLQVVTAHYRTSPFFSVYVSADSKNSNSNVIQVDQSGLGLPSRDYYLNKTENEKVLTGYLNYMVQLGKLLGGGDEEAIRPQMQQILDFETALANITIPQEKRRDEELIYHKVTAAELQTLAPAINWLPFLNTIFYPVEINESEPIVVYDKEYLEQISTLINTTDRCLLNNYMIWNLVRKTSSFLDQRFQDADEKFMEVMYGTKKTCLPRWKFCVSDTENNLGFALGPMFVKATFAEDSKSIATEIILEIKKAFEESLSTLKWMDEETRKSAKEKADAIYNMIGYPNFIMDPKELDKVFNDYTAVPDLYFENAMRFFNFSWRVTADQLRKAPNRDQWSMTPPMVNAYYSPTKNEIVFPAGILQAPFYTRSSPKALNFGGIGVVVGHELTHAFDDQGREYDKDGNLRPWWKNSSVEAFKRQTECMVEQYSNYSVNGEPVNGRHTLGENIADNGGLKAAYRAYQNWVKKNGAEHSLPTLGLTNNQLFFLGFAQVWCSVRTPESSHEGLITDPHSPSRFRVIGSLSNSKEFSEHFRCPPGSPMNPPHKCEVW
Chain of Alpha-1D adrenergic receptor (Homo sapiens) (P25100 whole entry): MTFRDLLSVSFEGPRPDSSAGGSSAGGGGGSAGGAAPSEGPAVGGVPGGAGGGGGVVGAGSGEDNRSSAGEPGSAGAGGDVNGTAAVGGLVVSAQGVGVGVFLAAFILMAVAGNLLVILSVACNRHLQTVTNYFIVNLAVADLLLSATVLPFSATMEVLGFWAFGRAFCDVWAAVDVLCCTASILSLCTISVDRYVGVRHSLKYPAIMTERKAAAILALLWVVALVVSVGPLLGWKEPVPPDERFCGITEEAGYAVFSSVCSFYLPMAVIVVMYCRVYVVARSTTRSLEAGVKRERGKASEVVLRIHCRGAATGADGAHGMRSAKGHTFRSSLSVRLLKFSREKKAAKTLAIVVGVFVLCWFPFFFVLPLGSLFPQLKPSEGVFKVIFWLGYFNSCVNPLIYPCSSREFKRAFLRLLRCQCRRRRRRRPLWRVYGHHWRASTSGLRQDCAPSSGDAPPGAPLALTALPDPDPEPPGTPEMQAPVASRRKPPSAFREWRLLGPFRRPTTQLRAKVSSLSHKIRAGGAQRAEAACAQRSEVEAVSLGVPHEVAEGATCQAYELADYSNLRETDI
Chain of Neutrophil elastase (Homo sapiens) (P08246 whole entry): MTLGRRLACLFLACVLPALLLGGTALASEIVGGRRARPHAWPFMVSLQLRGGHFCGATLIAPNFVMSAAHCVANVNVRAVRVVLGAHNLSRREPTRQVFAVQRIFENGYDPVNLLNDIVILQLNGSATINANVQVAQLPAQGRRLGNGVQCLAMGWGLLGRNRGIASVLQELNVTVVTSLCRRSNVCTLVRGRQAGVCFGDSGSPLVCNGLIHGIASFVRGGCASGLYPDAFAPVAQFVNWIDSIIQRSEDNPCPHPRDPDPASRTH

Regarding `COc1ccc2c(O[C@@H]3C[C@H]4C(=O)N[C@]5(C(=O)O)CC5/C=C\CCCCC[C@H](NC(=O)OC5CCCC5)C(=O)N4C3)cc(-c3csc(NC(=O)C(C)C)n3)nc2c1C` (stereo not given in full) [BI 1230], the % Inhibition of Control Values on Caspase-6 (Homo sapiens) was 10.3%; in [2], -16.8%; in assay [3], 14.3%; in [4] it was 9.7%; on Caspase-2 (Homo sapiens), 44.5%; in assay [6], 59.2%. Also, the inhibition in assay [1] is 20.5%. Further, the inhibition constant (Ki) in [5] came out at 3.62 µM.

On to `O=C(N[C@H]1CCCCC/C=C\C2C[C@@]2(C(=O)O)NC(=O)[C@@H]2C[C@@H](Oc3ccncc3)CN2C1=O)OC1CCCC1` (stereo not given in full) [BI 1675], for which the values for the inhibition in [7] and in [8] were 8.04% and 2.64%, respectively.

The term inhibition denotes the share of the control response that was lost under treatment. As a reminder, the Ki is the dissociation constant of the complex between target and ligand, obtained from inhibition or displacement.
